Results on 17 compounds are retold here after patent publication US20240368169A1 (priority 2021, published 2024).

A value given as a limit tells only on which side of the number the result lay.

Series [1] deals with recombinant poly(ADP-ribose) polymerase 2 (PARP2) (Homo sapiens, UniProt Q9UGN5). In words: biochemical. The settings on record: inhibition of PARP2 enzyme activity, chemiluminescence.
In series [2] the test system is MDA-MB-436 cells. In words: Growth inhibition assay against BRCA mutant human breast cancer MDA-MB-436 cell line (CCK-8, 7 days). Type of series: cell-based.
For series [3], the target named is recombinant poly(ADP-ribose) polymerase 1 (PARP1) (Homo sapiens, UniProt P09874). In words: biochemical. Particulars: inhibition of PARP1 enzyme activity, chemiluminescence.
For series [4] the following is noted: results of clinical trials; cited from earlier work.
Series [5] has as its system TNKS1/2 (Tankyrase 1 or Tankyrase 2). The settings on record: compared with other PARP inhibitors, biochemical assay; cited from earlier work.

recombinant poly(ADP-ribose) polymerase 2 (PARP2), sequence (Q9UGN5 whole entry): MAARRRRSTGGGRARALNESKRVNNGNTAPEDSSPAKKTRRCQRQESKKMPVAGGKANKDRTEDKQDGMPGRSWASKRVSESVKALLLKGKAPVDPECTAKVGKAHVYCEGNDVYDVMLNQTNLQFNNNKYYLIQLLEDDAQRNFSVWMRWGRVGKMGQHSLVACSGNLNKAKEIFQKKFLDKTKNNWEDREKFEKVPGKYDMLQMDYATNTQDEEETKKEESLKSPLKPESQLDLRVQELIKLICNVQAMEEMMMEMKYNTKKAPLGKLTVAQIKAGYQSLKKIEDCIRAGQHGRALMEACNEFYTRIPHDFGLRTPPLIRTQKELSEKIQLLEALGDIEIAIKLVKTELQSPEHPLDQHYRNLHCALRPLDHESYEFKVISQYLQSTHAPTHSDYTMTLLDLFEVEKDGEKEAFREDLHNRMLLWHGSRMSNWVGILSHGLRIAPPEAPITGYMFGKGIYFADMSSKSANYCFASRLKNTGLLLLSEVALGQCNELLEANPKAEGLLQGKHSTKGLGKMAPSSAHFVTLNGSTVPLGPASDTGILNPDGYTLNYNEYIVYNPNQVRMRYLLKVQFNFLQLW
recombinant poly(ADP-ribose) polymerase 1 (PARP1), sequence (P09874 whole entry): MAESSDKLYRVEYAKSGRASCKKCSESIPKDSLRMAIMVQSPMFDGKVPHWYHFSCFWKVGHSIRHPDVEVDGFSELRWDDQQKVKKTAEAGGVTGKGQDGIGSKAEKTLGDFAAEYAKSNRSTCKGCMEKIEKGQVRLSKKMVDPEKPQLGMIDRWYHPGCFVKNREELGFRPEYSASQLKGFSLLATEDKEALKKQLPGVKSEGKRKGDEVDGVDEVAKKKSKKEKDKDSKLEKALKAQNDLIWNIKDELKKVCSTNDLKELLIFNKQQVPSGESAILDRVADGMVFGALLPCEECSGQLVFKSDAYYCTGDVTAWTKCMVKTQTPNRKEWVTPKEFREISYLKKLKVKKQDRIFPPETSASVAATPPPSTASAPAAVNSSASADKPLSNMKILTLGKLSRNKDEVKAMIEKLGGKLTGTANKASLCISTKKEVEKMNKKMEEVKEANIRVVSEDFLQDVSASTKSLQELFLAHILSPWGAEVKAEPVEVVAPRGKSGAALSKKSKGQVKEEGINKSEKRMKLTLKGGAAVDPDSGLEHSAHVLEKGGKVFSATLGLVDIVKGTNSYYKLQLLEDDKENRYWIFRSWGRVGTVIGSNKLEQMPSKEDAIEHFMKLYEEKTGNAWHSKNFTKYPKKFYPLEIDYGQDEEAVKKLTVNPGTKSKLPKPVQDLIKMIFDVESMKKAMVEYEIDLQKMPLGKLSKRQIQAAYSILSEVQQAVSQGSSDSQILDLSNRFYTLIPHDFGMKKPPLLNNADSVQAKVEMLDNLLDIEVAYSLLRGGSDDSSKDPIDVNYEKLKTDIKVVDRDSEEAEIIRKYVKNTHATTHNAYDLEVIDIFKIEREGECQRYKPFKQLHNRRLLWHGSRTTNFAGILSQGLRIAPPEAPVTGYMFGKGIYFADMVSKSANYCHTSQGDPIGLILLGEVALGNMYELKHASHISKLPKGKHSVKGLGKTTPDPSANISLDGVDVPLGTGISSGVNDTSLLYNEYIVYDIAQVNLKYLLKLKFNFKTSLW

Consider `CNC(=O)c1ccc(N2CCN(Cc3cc(F)c4c(c3)[nH]c(=O)c3cc(Cl)nn34)CC2)c(C)n1` [Example 87, 7-((4-(2-methyl-6-(methylcarbamoyl)pyridin-3-yl)piperazin-1-yl)methyl)-2-chloro-9-fluoropyrazolo[1,5-a]quinoxalin-4(5H)-one], for which the IC50 was determined as 84.1 nM in series [1], 0.94 nM in series [2] and 1.22 nM in series [3].
As for `CNC(=O)c1ccc(N2CCN(Cc3cc(F)c4c(c3)[nH]c(=O)c3cc(Cl)nn34)CC2)c(F)n1` [Example 88, 7-((4-(2-fluoro-6-(methylcarbamoyl)pyridin-3-yl)piperazin-1-yl)methyl)-2-chloro-9-fluoropyrazolo[1,5-a]quinoxalin-4(5H)-one], the IC50 in series [1] worked out at 80.3 nM; in series [2] it was 0.38 nM; in series [3] it was 1.72 nM.
In the case of `Cc1nc(C(N)=O)ccc1N1CCN(Cc2cc(F)c3c(c2)[nH]c(=O)c2ccnn23)CC1` [Example 89, 7-((4-(2-methyl-6-(carbamoyl)pyridin-3-yl)piperazin-1-yl)methyl)-9-fluoropyrazolo[1,5-a]quinoxalin-4(5H)-one], the IC50 came out at 861 nM in series [1], 2.22 nM in series [2] and 1.72 nM in series [3].
For `CCNC(=O)c1ccc(N2CCN(Cc3cc(F)c4c(c3)[nH]c(=O)c3ccnn34)CC2)c(C)n1` [Example 91, 7-((4-(2-methyl-6-(ethylcarbamoyl)pyridin-3-yl)piperazin-1-yl)methyl)-9-fluoropyrazolo[1,5-a]quinoxalin-4(5H)-one], in that order: 627 nM, 2.81 nM and 1.39 nM.
As for `Cc1nc(C(=O)NC2CC2)ccc1N1CCN(Cc2cc(F)c3c(c2)[nH]c(=O)c2ccnn23)CC1` [Example 92, 7-((4-(2-methyl-6-(cyclopropylcarbamoyl)pyridin-3-yl)piperazin-1-yl)methyl)-9-fluoropyrazolo[1,5-a]quinoxalin-4(5H)-one], the IC50 in series [1] was determined as 238 nM; in series [2], 5.05 nM; in series [3], 1.38 nM.
For the compound `CNC(=O)c1ccc(N2CCN(Cc3ccc4c([nH]c(=O)c5ccnn54)c3F)CC2)c(C)n1` [Example 94, 7-((4-(2-methyl-6-(methylcarbamoyl)pyridin-3-yl)piperazin-1-yl)methyl)-6-fluoropyrazolo[1,5-a]quinoxalin-4(5H)-one], the IC50 is above 10000 nM in series [1], 5.05 nM in series [2] and 2.69 nM in series [3].
As for `CNC(=O)c1ccc(N2CCN(Cc3ccc4c([nH]c(=O)c5ccnn54)c3F)CC2)c(F)n1` [Example 95, 7-((4-(2-fluoro-6-(methylcarbamoyl)pyridin-3-yl)piperazin-1-yl)methyl)-6-fluoropyrazolo[1,5-a]quinoxalin-4(5H)-one], the values for the IC50 in series [1], in series [2] and in series [3] were 886 nM, 6.78 nM and 1.82 nM, respectively.
As for `CNC(=O)c1ccc(N2CCN(Cc3ccc4c(c3)[nH]c(=O)c3c(Cl)cnn34)CC2)c(C)n1` [Example 98, 7-((4-(2-methyl-6-(methylcarbamoyl)pyridin-3-yl)piperazin-1-yl)methyl)-3-chloropyrazolo[1,5-a]quinoxalin-4(5H)-one], the IC50 in series [1] is 41 nM; in series [2], 0.62 nM; in series [3] it was 1.91 nM.
Taken in the same sequence, the figures for `CNC(=O)c1ccc(N2CCN(Cc3ccc4c(c3)[nH]c(=O)c3cc(Cl)nn34)CC2)c(C)n1` [Example 100, 7-((4-(2-methyl-6-(methylcarbamoyl)pyridin-3-yl)piperazin-1-yl)methyl)-2-chloropyrazolo[1,5-a]quinoxalin-4(5H)-one] were 65.6 nM, 0.68 nM and 0.95 nM.
For `CNC(=O)c1ccc(N2CCN(Cc3ccc4c(c3)[nH]c(=O)c3c(C)c(C)nn34)CC2)c(C)n1` [Example 101, 7-((4-(2-methyl-6-(methylcarbamoyl)pyridin-3-yl)piperazin-1-yl)methyl)-2,3-dimethylpyrazolo[1,5-a]quinoxalin-4(5H)-one], the IC50 in series [1] is 35.6 nM; in series [2], 2.48 nM; in series [3], 4.43 nM.
For `CNC(=O)c1ccc(N2CCN(Cc3cc(C)c4c(c3)[nH]c(=O)c3ccnn34)CC2)c(C)n1` [Example 102, 7-((4-(2-methyl-6-(methylcarbamoyl)pyridin-3-yl)piperazin-1-yl)methyl)-9-methylpyrazolo[1,5-a]quinoxalin-4(5H)-one], in that order: 101 nM, 2.24 nM and 6.91 nM.
Taken in the same sequence, the figures for `CNC(=O)c1ccc(N2CCN(Cc3ccc4c([nH]c(=O)c5cc(Cl)nn54)c3F)CC2)c(C)n1` [Example 103, 7-((4-(2-methyl-6-(methylcarbamoyl)pyridin-3-yl)piperazin-1-yl)methyl)-6-fluoro-2-chloropyrazolo[1,5-a]quinoxalin-4(5H)-one] were 1250 nM, 1.17 nM and 0.76 nM.
Taken in the same sequence, the figures for `CNC(=O)c1ccc(N2CCN(Cc3cc(F)c4c(c3)[nH]c(=O)c3sccc34)CC2)c(C)n1` [Example 114, 7-((4-(2-methyl-6-(methylcarbamoyl)pyridin-3-yl)piperazin-1-yl)methyl)-9-fluorothieno[2,3-c]quinolin-4(5H)-one] were 16.9 nM, 3.72 nM and 0.67 nM.
Take `CNC(=O)c1ccc(N2CCN(Cc3ccc4c([nH]c(=O)c5cc(C)nn54)c3F)CC2)c(F)n1` [Example 115, 7-((4-(2-fluoro-6-(methylcarbamoyl)pyridin-3-yl)piperazin-1-yl)methyl)-6-fluoro-2-methylpyrazolo[1,5-a]quinoxalin-4(5H)-one]: the results for the IC50 in series [1], in series [2] and in series [3] were 288 nM, 1.98 nM and 1.45 nM, respectively.
As for `Cc1nc(C(=O)NCO)ccc1N1CCN(Cc2cc(F)c3c(c2)[nH]c(=O)c2ccnn23)CC1` [Example 117, 7-((4-(2-methyl-6-(N-(hydroxymethyl)carbamoyl)pyridin-3-yl)piperazin-1-yl)methyl)-9-fluoropyrazolo[1,5-a]quinoxalin-4(5H)-one], the IC50 in series [1] was determined as 645 nM; in series [2], 4.74 nM; in series [3], 0.91 nM.
With `CNC(=O)c1ccc(N2CCN(Cc3cc(F)c4c(c3)[nH]c(=O)n3ccnc43)CC2)c(Cl)n1` [Example 119, 8-((4-(2-chloro-6-(methylcarbamoyl)pyridin-3-yl)piperazin-1-yl)methyl)-10-fluoroimidazo[1,2-c]quinazolin-5(6H)-one], the figures for the IC50 in series [1], in series [2] and in series [3] were 9500 nM, 16.2 nM and 1.83 nM, respectively.
For `Cn1ncnc1[C@H]1c2n[nH]c(=O)c3cc(F)cc(c23)N[C@@H]1c1ccc(F)cc1` [Talazoparib], the toxicity result in series [4] is “toxicity similar to chemotherapy drugs such as hair loss”. The “inhibitory activity against TNKS1/2” value in series [5] was “more potent inhibitory activity”.

Broadly, the IC50 is the concentration at which inhibition is half-maximal.
